Experimental data as given in patent publication US11319322B2, “Substituted aryl ether compound, preparation method thereof, pharmaceutical composition and use thereof” (Xiamen University, priority 2017, dated 2022).

Key:
KIF5B-RET-BaF3 = target: T1, KIF5B-RET-BaF3 (Homo sapiens, UniProt P07949); test: Growth inhibition of KIF5B-RET-BaF3 cells stably transfected with kinase (MTS); assay type: cell-based; conditions: 48 h, read-out: KIF5B-RET (IC50/nM)
T1 construct: fused on or other part: P33176 (Kinesin-1 heavy chain)
T1 sequence (P07949 whole entry, change not shown, the tested form may be a part): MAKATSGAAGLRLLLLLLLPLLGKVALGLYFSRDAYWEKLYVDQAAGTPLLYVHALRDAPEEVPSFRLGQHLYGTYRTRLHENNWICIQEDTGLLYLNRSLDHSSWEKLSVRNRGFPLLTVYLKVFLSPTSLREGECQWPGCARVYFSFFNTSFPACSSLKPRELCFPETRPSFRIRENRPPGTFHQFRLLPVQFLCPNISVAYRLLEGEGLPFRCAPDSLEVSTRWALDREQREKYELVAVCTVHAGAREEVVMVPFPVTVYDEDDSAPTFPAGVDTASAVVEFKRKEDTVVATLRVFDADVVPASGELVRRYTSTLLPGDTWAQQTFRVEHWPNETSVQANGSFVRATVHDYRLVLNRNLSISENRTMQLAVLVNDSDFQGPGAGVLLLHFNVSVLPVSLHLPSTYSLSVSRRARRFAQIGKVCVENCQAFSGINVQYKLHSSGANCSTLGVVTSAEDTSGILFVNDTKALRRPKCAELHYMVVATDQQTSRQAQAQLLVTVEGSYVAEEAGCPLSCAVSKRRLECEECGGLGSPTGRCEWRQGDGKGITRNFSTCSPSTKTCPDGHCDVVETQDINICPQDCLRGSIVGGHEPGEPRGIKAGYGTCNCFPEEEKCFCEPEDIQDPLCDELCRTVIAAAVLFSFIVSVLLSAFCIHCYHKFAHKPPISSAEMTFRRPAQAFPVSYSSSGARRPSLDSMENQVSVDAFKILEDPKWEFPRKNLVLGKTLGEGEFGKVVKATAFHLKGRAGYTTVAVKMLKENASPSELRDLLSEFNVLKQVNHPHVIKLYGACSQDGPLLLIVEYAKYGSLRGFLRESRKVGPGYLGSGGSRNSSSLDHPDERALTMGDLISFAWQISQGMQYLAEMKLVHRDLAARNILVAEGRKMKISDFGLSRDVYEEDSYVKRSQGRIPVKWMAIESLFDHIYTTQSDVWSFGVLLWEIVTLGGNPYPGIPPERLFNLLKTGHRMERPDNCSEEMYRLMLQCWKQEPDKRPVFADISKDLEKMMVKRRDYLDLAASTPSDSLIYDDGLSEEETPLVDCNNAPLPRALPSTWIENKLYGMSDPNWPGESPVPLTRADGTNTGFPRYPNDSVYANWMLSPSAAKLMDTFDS
Method: (§1) Growth inhibitory activity of compounds on cell lines stably transfected with kinase
(§2) The activity of compounds against kinase RET is evaluated by their effect of inhibiting growth of cell lines stably transfected with kinase CCDC6-RET-BaF3, KIF5B-RET-BaF3, and wild-type BaF3 (Proc. Natl. Acad. Sci. USA., 2006, 103, 3153-8.). The growth of the cell lines stably transfected with kinase CCDC6-RET-BaF3, KIF5B-RET-BaF3 depends on their kinase activity. If a compound can inhibit the activity of the kinase RET per se or the activity of the RET signaling pathway, the compound can inhibit the growth of BaF3 cells stably transfected with kinase. […] Therefore, a larger ratio between IC50 of a compound to wild-type BaF3 and IC50 of the compound to the cell lines stably transfected with kinase CCDC6-RET-BaF3, KIF5B-RET-BaF3 indicates better targeting.
(§3) The specific test method is given as follows:
(§4) 1) Medium: DMEM (Dulbecco's modified eagle medium) or RPMI 1640 (containing 10% fetal bovine serum, 100 μg/mL ampicillin, 100 μg/mL streptomycin).
(§5) 2) Reagents: MTS reaction solution (containing 2 mg/mL of MTS [3-(4,5-dimethylthiazol-2-yl)-5-(3-carboxymethoxyphenyl)-2-(4-sulfophenyl)-2H-tetrazolium, inner Salt]; 100 μg/mL PES (phenazine […])).
(§6) 3) Compound test: cells stably transfected with kinase (CCDC6-RET-BaF3, KIF5B-RET-BaF3) or wild-type BaF3 cells (2×10^4 cells/well) were incubated into a 96-well culture plate, the volume of cell culture fluid was 90 μL, and then 10 μL of the compound at each gradient concentration was added (the highest concentration was 10 μM, which was diluted stepwise by ⅓, and 8 concentration points were set in total; the system contained 0.1% DMSO (dimethyl sulfoxide)). The cell plate with uniformly mixed compound was cultured in a cell culture incubator (37° C.; 5% CO2) for 48 h, then 20 μL of MTS reaction solution was added, uniformly mixed and incubated in the cell culture incubator (37° C.; 5% CO2) for 1-4 hr, OD values at 490 nm were measured by a microplate reader (VARIOSKAN FLASH, Thermo). Three parallels were set in each group of experiments, with 0.1% (a final concentration) DMSO as a negative control, and a medium without cells or compounds as a blank control. The cell growth inhibition rate was calculated by the following formula: Cell growth inhibition rate %=1−(ODexperimental group−ODblank group)/(ODnegative group−ODblank group)×100%
(§7) 4) IC50 calculation: The semi-inhibitory concentration of the compound acting on cell growth was calculated using GradPad Prism 5 software according to the measured cell growth inhibition rate.

CCDC6-RET-BaF3 = target: T2, CCDC6-RET-BaF3 (Homo sapiens, UniProt P07949); test: Growth inhibition of CCDC6-RET-BaF3 cells stably transfected with kinase (MTS); assay type: cell-based; conditions: 48 h, read-out: CCDC6-RET (IC50/nM)
T2 construct: fused on or other part: Q16204 (Coiled-coil domain-containing protein 6)
T2 sequence (P07949 whole entry, change not shown, the tested form may be a part): as above
Method: as §1, §2, §3, §4, §5, §6, §7

| GI50 (KIF5B-RET-BaF3) [nM] | GI50 (CCDC6-RET-BaF3) [nM] | Structure (SMILES) |
| --- | --- | --- |
| 1040 | 881 | Cc1ccc(NC(=O)c2ccc(CN3CCN(C)CC3)c(C(F)(F)F)c2)cc1Oc1ncnc2c1cnn2C [II-i-3] |
| 4420 | 4170 | Cc1ccc(Oc2nc(-c3cccnc3)nc3c2cnn3C)cc1NC(=O)c1ccc(CN2CCN(C)CC2)c(C(F)(F)F)c1 [II-j-1] |
| 3210 | 1420 | Cc1ccc(Oc2nc(-c3ccoc3)nc3c2cnn3C)cc1NC(=O)c1ccc(CN2CCN(C)CC2)c(C(F)(F)F)c1 [II-j-3] |
| 2360 | 2070 | Cc1ccc(Oc2nc(-c3ccsc3)nc3c2cnn3C)cc1NC(=O)c1ccc(CN2CCN(C)CC2)c(C(F)(F)F)c1 [II-j-4] |
| 1390 | 2070 | CN1CCN(Cc2ccc(C(=O)Nc3cc(Oc4nc(-c5cccnc5)nc5c4cnn5C)ccc3Cl)cc2C(F)(F)F)CC1 [II-k-1] |
| 114 | 15.8 | CN1CCN(Cc2ccc(C(=O)Nc3cc(Oc4nc(-c5ccncc5)nc5c4cnn5C)ccc3Cl)cc2C(F)(F)F)CC1 [II-k-2] |
| 17.8 | 30.2 | Cc1ccc(C(=O)Nc2ccc(CN3CCN(C)CC3)c(C(F)(F)F)c2)cc1Oc1nc(-c2ccncc2)nc2c1cnn2C [II-m-2] |
| 97.7 | 348 | Cc1ccc(C(=O)Nc2ccc(CN3CCN(C)CC3)c(C(F)(F)F)c2)cc1Oc1nc(-c2ccccc2)nc2c1cnn2C [II-m-3] |
| 152 | 848 | Cc1ccc(-c2nc(Oc3cc(C(=O)Nc4ccc(CN5CCN(C)CC5)c(C(F)(F)F)c4)ccc3C)c3cnn(C)c3n2)cc1 [II-m-4] |
| 320 | 807 | Cc1ccc(C(=O)Nc2ccc(CN3CCN(C)CC3)c(C(F)(F)F)c2)cc1Oc1nc(-c2cccc(Cl)c2)nc2c1cnn2C [II-m-5] |
| 114 | 696 | Cc1ccc(C(=O)Nc2ccc(CN3CCN(C)CC3)c(C(F)(F)F)c2)cc1Oc1nc(-c2ccc(Cl)cc2)nc2c1cnn2C [II-m-6] |
| 28.3 | 178 | Cc1ccc(C(=O)Nc2ccc(CN3CCN(C)CC3)c(C(F)(F)F)c2)cc1Oc1nc(-c2cccc(O)c2)nc2c1cnn2C [II-m-7] |
| 56.9 | 166 | Cc1ccc(C(=O)Nc2ccc(CN3CCN(C)CC3)c(C(F)(F)F)c2)cc1Oc1nc(-c2ccc(O)cc2)nc2c1cnn2C [II-m-8] |
| 14.6 | 75.1 | Cc1ccc(C(=O)Nc2ccc(CN3CCN(C)CC3)c(C(F)(F)F)c2)cc1Oc1nc(-c2ccoc2)nc2c1cnn2C [II-m-9] |
| 36.4 | 449 | Cc1ccc(C(=O)Nc2ccc(CN3CCN(C)CC3)c(C(F)(F)F)c2)cc1Oc1nc(-c2ccsc2)nc2c1cnn2C [II-m-10] |
| 14.9 | 31.8 | Cc1ccc(C(=O)Nc2ccc(CN3CCN(C)CC3)c(C(F)(F)F)c2)cc1Oc1nc(Nc2cccnc2)nc2c1cnn2C [II-m-11] |
| 69.7 | 123 | Cc1ccc(C(=O)Nc2ccc(CN3CCN(C)CC3)c(C(F)(F)F)c2)cc1Oc1nc(Nc2ccccc2)nc2c1cnn2C [II-m-12] |
| 172 | 253 | Cc1ccc(Nc2nc(Oc3cc(C(=O)Nc4ccc(CN5CCN(C)CC5)c(C(F)(F)F)c4)ccc3C)c3cnn(C)c3n2)cc1 [II-m-13] |
| 21.6 | 9.31 | Cc1ccc(C(=O)Nc2ccc(CN3CCN(C)CC3)c(C(F)(F)F)c2)cc1Oc1nc(NC2CC2)nc2c1cnn2C [II-m-14] |
| 18 | 111 | Cc1ccc(C(=O)Nc2ccc(CN3CCN(C)CC3)c(C(F)(F)F)c2)cc1Oc1nc(N2CCOCC2)nc2c1cnn2C [II-m-15] |
| 84.6 | 384 | Cc1ccc(C(=O)Nc2ccc(CN3CCN(C)CC3)c(C(F)(F)F)c2)cc1Oc1nc(N2CC(C)OC(C)C2)nc2c1cnn2C (stereo not shown) [II-m-16] |
| 160 | 1100 | Cc1ccc(C(=O)Nc2ccc(CN3CCN(C)CC3)c(C(F)(F)F)c2)cc1Oc1nc(N2CCN(C)CC2)nc2c1cnn2C [II-m-17] |
| 34.3 | 257 | Cc1ccc(C(=O)Nc2ccc(CN3CCN(C)CC3)c(C(F)(F)F)c2)cc1Oc1nc(N(C)C)nc2c1cnn2C [II-m-18] |
